Measured values: patent US10487337B2, “Methods for monocot plant improvement” (Agresearch Limited, priority 2014, dated 2019)

What was measured:
[1] = test system: Wild-type (Col-0), Δppd mutant and transgenic PPD-OX seedlings; test: Hypocotyl elongation of seedlings on exogenous GA or PAC; type: in vivo, Arabidopsis thaliana
Source text: Giberellic acid (GA) treatment is known to reduce levels of the DELLA proteins (including RGA1) which are GA repressors; to determine the relationship between PPD, DELLA and the GA signalling pathway the applicants performed a yeast two-hybrid (Y2H) analysis between PPD and DELLA (RGA1) and applied gibberellic acid (GA) hormone and GA biosynthesis inhibitor (paclobutrazol, PAC) to wild type, Δppd mutant, and the Δppd mutant PPD over expressor (PPD-OX).
For exogenous applications of GA or PAC seeds were surface sterilised with 70% ethanol, 0.01% Triton X-100 for 10 min, followed by 100% ethanol for 5 min, air dried on sterile filter paper, and transferred to media plates containing half-strength MS salts, 1% sucrose and 0.8% agar. Plates were incubated for 5 days at 4° C. in the dark then transferred to 24° C. with a 14 h light/10 h dark daily cycle. Light was provided by fluorescent tubes (Philips TLD 58W/865) at an intensity of 100 μM m^−2s^−1. Wild-type (Col-0) Δppd mutant and transgenic PPD-OX seedlings were grown for five days on medium with different concentrations of GA (FIG. 11A) or PAC (FIG. 11B). GA (ACROS organics), and PAC (Sigma-Aldrich) were dissolved in ethanol and acetone respectively, filter sterilised and incorporated into media plates. Ethanol or acetone (0.5%) was used for mock treatments. Seedlings were grown at 24° C. under a 14 h light/10 h dark daily cycle for 5 days before hypocotyl lengths were analysed (n=35). Each treatment was repeated twice; error bars=standard error of the mean.

ryegrass plants [2] = test: Leaf biomass analysis of grass transformants; type: in vivo; conditions: constitutive promoter, observed leaf growth, approximately 6 weeks
Method: (§1) An equal number (typically 4-10) of tillers were taken from WT and ryegrass plants transformed with Arabidopsis PPD under one of two green tissue promoters. Tillers were planted into plastic grow bags containing potting mix and pruned to be of equal height. […] The increase in leaf/shoot biomass can be quantified removing the attached above ground portion (leaves and shoots) and drying them at 65° C. for 48 hr then weighing the dry weights.
as §1, with “a constitutive promoter.” for “one of two green tissue promoters.”, “was” for “can be”, “weights (Table 2).” for “weights.”

ryegrass plants [3] = test: Root biomass analysis of grass transformants; type: in vivo; conditions: constitutive promoter, root growth beyond the grow bag, approximately 6 weeks
Method: as §1, with “three root” for “two green tissue”, “root” for “leaf/shoot”, “was” for “can be”, “the roots” for “them”, “weights (Tables 3 and 4)” for “weights.”
as §1, with “a constitutive promoter.” for “one of two green tissue promoters.”, “root” for “leaf/shoot”, “was” for “can be”, “the roots” for “them”, “weights (Table 5).” for “weights.”

Arabidopsis Δppd mutant = test: Complementation of the Arabidopsis Δppd mutant leaf phenotype; type: in vivo; conditions: CaMV35s promoter, Arabidopsis thaliana ecotype Landsberg erecta, FIG. 13
Source text: The functionality of any PEAPOD sequence can be confirmed by complementation of the Arabidopsis Δppd mutant leaf phenotype. Complementation of the Arabidopsis Δppd mutant leaf phenotype was first used to identify the Arabidopsis PPD gene (White 2006). This was seen by a restoration of the wild type flattened leaf phenotype and normal rosette shape as opposed to the domed leaf and the twisting of the rosette to a “propeller” phenotype.
Arabidopsis thaliana (L.) Heynh ecotype Ler can be used as wild-type (WT). The Δppd loss of function deletion mutant (with PPD1 and PPD2 deleted) is as previously described in White 2006, PNAS 103, 13238-13243.
Plants are grown in a temperature-controlled glasshouse at a continuous 21° C. or in a controlled environment cabinet at 23° C. in 16-h light_8-h dark cycles.
Constructs above can be transformed into Arabidopsis by the floral dip infiltration method (Clough and Bent, 1998, Plant J 16, 735-43). The Δppd line is transformed to express the PPD polypeptides by standard techniques. Transgenic plants are confirmed by standard PCR analysis techniques with a combination of transgene-specific and T-DNA primers.
Complementation of the Δppd line to produce a wild-type leaf and rosette phenotype in T1 seedlings (the off-spring of the infiltrated plant) confirms PEAPOD functionality of the introduced gene, which can be shown in photographs.

`CC(C)(C)[C@@H](O)[C@@H](Cc1ccc(Cl)cc1)n1cncn1` (racemic) [PAC, paclobutrazol] was tested, and the hypocotyl length ([1]; PPD-OX seedlings, PAC beyond 0.1 μM) was “decrease in hypocotyl length”, the hypocotyl elongation ([1]; PPD-OX seedlings, PAC up to 0.1 μM) was “relatively insensitive” and the hypocotyl elongation ([1]; wild type seedlings, 0 to 10 μM PAC, 5 days) was “dose dependent decrease of hypocotyl elongation”. The hypocotyl elongation ([1]; Δppd seedlings, 0 to 10 μM PAC, compared with wild type) was “larger reduction in hypocotyl elongation”.

With `C=C1C[C@]23C[C@@]1(O)CC[C@H]2[C@@]12C=C[C@H](O)[C@@](C)(C(=O)O1)[C@H]2[C@@H]3C(=O)O` [GA, gibberellic acid] the hypocotyl elongation ([1]; PPD-OX seedlings, 1 μM GA, 5 days) was “increased hypocotyl elongation”, the hypocotyl elongation ([1]; PPD-OX seedlings, up to 10 μM GA, 5 days) was “hypersensitive elongation” and the hypocotyl elongation ([1]; WT seedlings, 5-50 μM GA, 5 days) was “elongation of the WT hypocotyl occurred in a dose dependent manner”. For the same molecule, the hypocotyl elongation ([1]; wild type (WT) seedlings, 1 μM GA, 5 days) was “did not promote elongation”, the hypocotyl elongation ([1]; Δppd seedlings, 1 μM GA, 5 days) was “increased hypocotyl elongation” and the hypocotyl elongation ([1]; Δppd seedlings, up to 5 μM GA, 5 days) was “hypersensitive elongation”.

B1: Amborella trichopoda PPD: PEAPOD protein of Amborella trichopoda, SEQ ID NO: 12 (protein, listed as Amborella trichopoda)
chain: MTAGDGSIRSILDKPLEELTEEDISQLTREDCRRYLKEKGMRRPSWNKYQAIQQVLSLKGLLEGKPCDDNSDVFSHRSPITVIPNVGSMREKEKAVNIADPEISGSHQPNFRREIHETTRERALPASDWPPSQEPVSQMTIFYAGAVNVYNDIPEDKVQAIIYLAGKSDSLQQTNVIRTGPDQCIASAASPSLNDLHSRRIHPTSNITTSQSLRVATSLPVGPHSEVPKTRKTSVQRFLEKRKDRGRLKGTLASGGSSKRGSSCLELYATSRLKSEGVATTTTQSNMNNVVVSPSNPRMPLNPGSCSWVEN
For B1, the “leaf biomass/growth/length/branching compared to WT plants” value (ryegrass plants [2]) was “increase in leaf biomass/growth/length/branching”, the “root biomass/growth/length/branching compared to WT plants” value (ryegrass plants [3]) was “increase in root biomass/growth/length/branching” and the “PEAPOD functionality by complementation of the Δppd deletion mutant” value (Arabidopsis Δppd mutant) was “functionally equivalent”.

B2: Picea sitchensis PPD: PEAPOD protein of Picea sitchensis, SEQ ID NO: 5 (protein, listed as Picea sitchensis)
chain: MRGGERAPGSRPSLDKPLEELTEEDIFQLTREDCRRYLKEKGMRRPSWNKSQAIQQVLSLKSLFESKPNQQSKKPSKHKPATLQFETARDSTFAQSSVSQEQSLGFSWSKEVLDKGTAERQRLCSDSQEAHEIPRLGSKPPQSNTEGKRCAHDGHGRKSAQPLVRLPANFKNDCSNRQSSHTSESQPDTLLRSDSFQQPTAQLTIFYAGMVNVYDDVPLDKA
With B2 the “leaf biomass/growth/length/branching compared to WT plants” value (ryegrass plants [2]) was “increase in leaf biomass/growth/length/branching”, the “root biomass/growth/length/branching compared to WT plants” value (ryegrass plants [3]) was “increase in root biomass/growth/length/branching” and the “PEAPOD functionality by complementation of the Δppd deletion mutant” value (Arabidopsis Δppd mutant) was “functionally equivalent”.

B3: Trifolium repens PPD: PEAPOD protein of Trifolium repens, SEQ ID NO: 11 (protein, listed as Trifolium repens)
chain: MNGGSTVSFRSILDKPLNQLTEDDISQLTREDCRRFLKDKGMRRPSWNKSQAIQQVISLKALLEPTDDDLPAPVGVSSAIHHHHHHHPQPPQRNLNEAPVKGSDLDDTGFHTAEDLNKSTSTAVEIPTETNDANVVKSSGGCVASGSFGQMTIFYCGKVNVYDGVSPDKARSIMQLAACPSSFPQDNLLNKNAAVWASPCNIPIDKDVLFPNDTAILQVAQTDKMVEYPLQYREKGSIARDADVEGQASRNASLQRYREKRKDRGRSKGNKLTGITSSNFEMYLNLPVKLHASNGNSSRSSTDSPPQPRLPLVSGGSAENQPKVTLPIDLNDKDVQEC
In the case of B3, the “leaf biomass/growth/length/branching compared to WT plants” value (ryegrass plants [2]) is reported as “increase in leaf biomass/growth/length/branching”, the “root biomass/growth/length/branching compared to WT plants” value (ryegrass plants [3]) is reported as “increase in root biomass/growth/length/branching” and the “PEAPOD functionality by complementation of the Δppd deletion mutant” value (Arabidopsis Δppd mutant) is reported as “functionally equivalent”.
